The Ki is the equilibrium dissociation constant of an inhibitor or competing ligand from its target. Read a low Ki as tighter binding.

The experiment deals with E. coli nitroreductase A (NfsA) (Escherichia coli, UniProt P17117). The experiment is described as follows: steady-state kinetics; competitive inhibition versus NADPH (also reduced as a substrate). Type of experiment: biochemical.

Each structure is given as a SMILES string.

Chain of E. coli nitroreductase A (NfsA) (P17117 whole entry): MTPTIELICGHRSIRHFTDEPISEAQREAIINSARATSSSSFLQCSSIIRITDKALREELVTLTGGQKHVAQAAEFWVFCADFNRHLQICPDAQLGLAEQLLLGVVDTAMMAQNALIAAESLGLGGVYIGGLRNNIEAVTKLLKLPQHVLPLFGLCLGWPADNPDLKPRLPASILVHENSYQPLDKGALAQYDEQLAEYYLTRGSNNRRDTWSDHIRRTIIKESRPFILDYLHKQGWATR

As to `CC(=O)c1ccc[n+]([C@@H]2O[C@H](COP(=O)([O-])OP(=O)(O)OC[C@H]3O[C@@H](n4cnc5c(N)ncnc54)[C@H](OP(=O)(O)O)[C@@H]3O)[C@@H](O)[C@H]2O)c1` [APADP+], the Ki was 150 ± 12 µM.

The values above are taken from paper PMC11049802 (International Journal of Molecular Sciences, 2024).
